One block for each molecule: values may come before it.
How the values were obtained:
[1] = molecular target: T1, Rhodopsin kinase GRK1 (Homo sapiens) (UniProt Q15835); experiment: Selectivity interaction (LanthaScreen Eu Kinase Binding Assay) EUB0001632a GRK1; conditions: at 10 µM
T1 sequence (whole entry): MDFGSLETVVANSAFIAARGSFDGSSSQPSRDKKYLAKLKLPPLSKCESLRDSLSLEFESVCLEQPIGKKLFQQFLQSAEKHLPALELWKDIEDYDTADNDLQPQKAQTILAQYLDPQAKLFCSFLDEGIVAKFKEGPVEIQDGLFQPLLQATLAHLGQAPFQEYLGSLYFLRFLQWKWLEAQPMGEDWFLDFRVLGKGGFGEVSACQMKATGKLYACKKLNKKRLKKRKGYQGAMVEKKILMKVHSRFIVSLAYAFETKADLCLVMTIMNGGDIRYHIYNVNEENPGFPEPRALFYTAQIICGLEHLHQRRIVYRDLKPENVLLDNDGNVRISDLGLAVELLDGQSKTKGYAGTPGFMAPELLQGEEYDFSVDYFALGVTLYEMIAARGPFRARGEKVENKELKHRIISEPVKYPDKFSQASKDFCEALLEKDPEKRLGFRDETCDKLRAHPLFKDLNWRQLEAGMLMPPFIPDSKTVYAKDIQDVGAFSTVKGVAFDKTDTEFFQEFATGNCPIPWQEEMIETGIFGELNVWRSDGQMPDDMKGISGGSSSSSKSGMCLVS

[2] = molecular target: Protein polybromo-1 (Homo sapiens) (UniProt Q86U86); experiment: Selectivity interaction (Human bromodomain panel (DSF assay)) EUB0000233b PBRM1
[3] = molecular target: T2, Macrophage-stimulating protein receptor (Homo sapiens, UniProt Q04912); experiment: Selectivity interaction (KinomeScan (DiscoverX)) EUB0000666a MST1R; conditions: at 10 µM
T2 sequence (Q04912 25-304 limits assumed): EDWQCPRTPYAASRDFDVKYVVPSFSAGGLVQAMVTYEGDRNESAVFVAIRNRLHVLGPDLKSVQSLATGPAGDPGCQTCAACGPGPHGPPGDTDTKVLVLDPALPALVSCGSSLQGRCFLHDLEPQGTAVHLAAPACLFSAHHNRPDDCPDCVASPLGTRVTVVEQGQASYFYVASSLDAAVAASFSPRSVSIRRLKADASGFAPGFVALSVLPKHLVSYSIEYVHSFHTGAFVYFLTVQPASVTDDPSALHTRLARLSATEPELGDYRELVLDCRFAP
T2 sequence (Q04912 310-1400 limits assumed): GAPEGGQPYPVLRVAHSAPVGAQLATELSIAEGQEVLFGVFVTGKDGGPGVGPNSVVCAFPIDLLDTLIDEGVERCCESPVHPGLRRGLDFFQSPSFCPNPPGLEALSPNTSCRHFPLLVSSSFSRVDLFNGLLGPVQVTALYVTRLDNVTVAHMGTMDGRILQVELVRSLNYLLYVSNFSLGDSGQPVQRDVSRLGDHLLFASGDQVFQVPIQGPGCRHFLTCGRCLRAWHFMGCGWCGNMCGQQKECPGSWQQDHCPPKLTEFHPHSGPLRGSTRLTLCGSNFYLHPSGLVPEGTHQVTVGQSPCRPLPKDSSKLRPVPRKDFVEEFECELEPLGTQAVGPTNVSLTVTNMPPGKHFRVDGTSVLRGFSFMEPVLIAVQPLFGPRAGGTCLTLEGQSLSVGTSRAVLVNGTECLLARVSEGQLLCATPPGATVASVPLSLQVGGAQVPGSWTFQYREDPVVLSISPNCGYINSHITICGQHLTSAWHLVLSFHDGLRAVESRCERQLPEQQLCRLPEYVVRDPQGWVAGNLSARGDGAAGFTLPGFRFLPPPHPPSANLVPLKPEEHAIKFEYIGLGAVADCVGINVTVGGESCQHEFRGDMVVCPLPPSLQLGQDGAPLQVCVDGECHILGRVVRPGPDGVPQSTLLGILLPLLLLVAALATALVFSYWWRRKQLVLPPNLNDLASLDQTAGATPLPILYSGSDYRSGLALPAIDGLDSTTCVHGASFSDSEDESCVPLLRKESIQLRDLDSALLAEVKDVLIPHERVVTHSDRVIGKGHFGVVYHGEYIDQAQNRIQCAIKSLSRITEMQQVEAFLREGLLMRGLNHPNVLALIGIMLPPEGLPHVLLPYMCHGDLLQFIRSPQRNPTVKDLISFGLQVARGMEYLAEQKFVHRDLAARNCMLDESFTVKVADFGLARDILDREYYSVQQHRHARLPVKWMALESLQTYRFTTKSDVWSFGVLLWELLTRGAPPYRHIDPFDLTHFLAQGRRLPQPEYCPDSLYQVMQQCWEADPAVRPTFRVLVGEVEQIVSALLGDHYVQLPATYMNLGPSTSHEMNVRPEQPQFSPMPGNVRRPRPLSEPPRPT

[4] = molecular target: Mitogen-activated protein kinase 10 (Homo sapiens, UniProt P53779); experiment: Selectivity interaction (Upstate Kinase Profiler service (Millipore)) EUB0000056c MAPK10; conditions: at 1 µM
Sequence of Mitogen-activated protein kinase 10 (P53779 whole entry): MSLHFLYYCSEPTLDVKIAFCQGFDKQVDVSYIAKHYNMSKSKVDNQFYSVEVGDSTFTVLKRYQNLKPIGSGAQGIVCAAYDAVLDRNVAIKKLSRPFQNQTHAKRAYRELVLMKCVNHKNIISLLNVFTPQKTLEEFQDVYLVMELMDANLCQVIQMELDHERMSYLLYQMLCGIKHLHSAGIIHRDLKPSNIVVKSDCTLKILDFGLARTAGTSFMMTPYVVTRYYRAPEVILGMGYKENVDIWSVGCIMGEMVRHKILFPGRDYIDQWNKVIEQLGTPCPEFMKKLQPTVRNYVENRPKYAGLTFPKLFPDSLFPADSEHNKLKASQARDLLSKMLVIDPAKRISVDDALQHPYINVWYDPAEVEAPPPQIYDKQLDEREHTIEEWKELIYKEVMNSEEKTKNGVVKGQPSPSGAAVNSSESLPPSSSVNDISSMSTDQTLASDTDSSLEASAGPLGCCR

[5] = molecular target: Tyrosine-protein kinase receptor UFO (Homo sapiens) (UniProt P30530); conditions: at 10 µM
Sequence of Tyrosine-protein kinase receptor UFO (Homo sapiens) (P30530 whole entry): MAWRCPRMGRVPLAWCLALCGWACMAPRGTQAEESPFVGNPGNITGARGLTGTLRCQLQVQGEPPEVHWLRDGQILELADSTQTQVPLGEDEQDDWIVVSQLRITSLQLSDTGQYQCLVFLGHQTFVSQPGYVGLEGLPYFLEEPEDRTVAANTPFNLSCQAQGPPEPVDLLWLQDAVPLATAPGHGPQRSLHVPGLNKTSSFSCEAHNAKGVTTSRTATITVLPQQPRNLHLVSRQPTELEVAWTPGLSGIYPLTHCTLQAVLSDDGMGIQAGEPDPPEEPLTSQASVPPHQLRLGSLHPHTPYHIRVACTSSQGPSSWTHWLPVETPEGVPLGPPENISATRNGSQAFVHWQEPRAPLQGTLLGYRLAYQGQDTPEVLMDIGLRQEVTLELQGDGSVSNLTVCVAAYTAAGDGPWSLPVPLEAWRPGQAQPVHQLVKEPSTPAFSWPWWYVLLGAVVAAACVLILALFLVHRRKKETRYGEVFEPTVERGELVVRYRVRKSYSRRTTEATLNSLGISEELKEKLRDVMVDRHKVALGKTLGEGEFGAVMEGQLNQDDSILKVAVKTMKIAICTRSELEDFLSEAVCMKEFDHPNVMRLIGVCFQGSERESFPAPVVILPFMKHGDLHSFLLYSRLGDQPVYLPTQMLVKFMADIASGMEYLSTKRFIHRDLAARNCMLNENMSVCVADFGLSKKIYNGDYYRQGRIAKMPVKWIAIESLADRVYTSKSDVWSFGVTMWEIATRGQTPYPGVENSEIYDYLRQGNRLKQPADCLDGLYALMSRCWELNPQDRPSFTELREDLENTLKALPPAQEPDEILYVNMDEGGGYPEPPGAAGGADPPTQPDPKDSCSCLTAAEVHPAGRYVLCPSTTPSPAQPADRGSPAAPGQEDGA

[6] = molecular target: Serine/threonine-protein kinase MRCK beta (Homo sapiens) (UniProt Q9Y5S2); conditions: at 10 µM
[7] = molecular target: Calcium/calmodulin-dependent protein kinase kinase 2 (Homo sapiens) (UniProt Q96RR4); experiment: Selectivity interaction (KinomeScan (DiscoverX)) EUB0000595a CAMKK2; conditions: at 10 µM
Sequence of Calcium/calmodulin-dependent protein kinase kinase 2 (Homo sapiens) (Q96RR4 2-588 limits assumed): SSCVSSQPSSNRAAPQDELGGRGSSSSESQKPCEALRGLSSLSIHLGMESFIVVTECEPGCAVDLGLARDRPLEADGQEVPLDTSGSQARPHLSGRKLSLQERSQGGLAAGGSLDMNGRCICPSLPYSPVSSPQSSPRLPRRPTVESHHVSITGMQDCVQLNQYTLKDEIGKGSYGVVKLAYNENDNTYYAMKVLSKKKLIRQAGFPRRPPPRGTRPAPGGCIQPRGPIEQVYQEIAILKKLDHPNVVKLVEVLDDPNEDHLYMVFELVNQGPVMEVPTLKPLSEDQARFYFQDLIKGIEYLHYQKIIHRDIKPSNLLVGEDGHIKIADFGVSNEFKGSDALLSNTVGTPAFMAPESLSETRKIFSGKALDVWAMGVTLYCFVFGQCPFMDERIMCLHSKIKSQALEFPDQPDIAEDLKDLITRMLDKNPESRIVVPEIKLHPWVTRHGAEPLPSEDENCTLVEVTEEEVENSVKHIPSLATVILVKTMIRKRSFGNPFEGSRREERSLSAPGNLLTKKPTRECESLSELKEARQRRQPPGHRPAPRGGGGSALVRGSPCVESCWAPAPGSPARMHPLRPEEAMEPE

[8] = molecular target: Cyclin-dependent kinase 17 (Homo sapiens) (UniProt Q00537); experiment: Selectivity interaction (KinomeScan (DiscoverX)) EUB0001049a CDK17; conditions: at 1 µM
Sequence of Cyclin-dependent kinase 17 (Homo sapiens) (Q00537 whole entry, looked up): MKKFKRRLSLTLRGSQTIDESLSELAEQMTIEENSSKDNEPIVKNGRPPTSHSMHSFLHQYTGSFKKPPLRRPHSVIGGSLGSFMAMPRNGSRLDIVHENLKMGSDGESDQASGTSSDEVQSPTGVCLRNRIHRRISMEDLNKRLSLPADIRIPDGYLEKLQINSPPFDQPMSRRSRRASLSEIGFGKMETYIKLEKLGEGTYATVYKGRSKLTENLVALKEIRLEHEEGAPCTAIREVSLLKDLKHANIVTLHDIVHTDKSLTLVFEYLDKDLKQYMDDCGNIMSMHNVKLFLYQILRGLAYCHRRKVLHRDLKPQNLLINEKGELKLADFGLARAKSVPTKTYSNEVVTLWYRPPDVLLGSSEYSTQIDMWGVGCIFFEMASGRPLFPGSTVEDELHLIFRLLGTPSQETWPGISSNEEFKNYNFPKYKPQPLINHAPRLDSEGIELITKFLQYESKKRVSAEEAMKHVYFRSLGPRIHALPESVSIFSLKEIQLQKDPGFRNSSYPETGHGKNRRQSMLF

[9] = molecular target: Cyclin-dependent kinase 2 (Homo sapiens, UniProt P24941); experiment: Selectivity interaction (KinomeScan (DiscoverX)) EUB0001079a CDK2; conditions: at 1 µM
[10] = molecular target: Cyclin-dependent kinase 8 (Homo sapiens, UniProt P49336); experiment: Selectivity interaction (KinomeScan (DiscoverX)) EUB0001079a CDK8; conditions: at 1 µM
Sequence of Cyclin-dependent kinase 8 (P49336 whole entry): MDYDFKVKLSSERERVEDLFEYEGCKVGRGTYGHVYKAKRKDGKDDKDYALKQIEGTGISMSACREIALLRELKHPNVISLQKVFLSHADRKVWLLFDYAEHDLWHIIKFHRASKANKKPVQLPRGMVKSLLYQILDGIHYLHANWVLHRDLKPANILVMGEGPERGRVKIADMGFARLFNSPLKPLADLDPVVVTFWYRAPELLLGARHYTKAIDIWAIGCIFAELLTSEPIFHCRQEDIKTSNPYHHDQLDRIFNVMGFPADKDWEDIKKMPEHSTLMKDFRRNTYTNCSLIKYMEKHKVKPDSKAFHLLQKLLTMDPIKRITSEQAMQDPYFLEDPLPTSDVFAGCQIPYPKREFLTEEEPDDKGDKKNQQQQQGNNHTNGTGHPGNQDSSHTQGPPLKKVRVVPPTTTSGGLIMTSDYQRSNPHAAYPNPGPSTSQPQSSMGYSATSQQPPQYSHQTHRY

[11] = molecular target: T3, Tyrosine-protein kinase ZAP-70 (Homo sapiens) (UniProt P43403); experiment: Selectivity interaction (Kinase panel (KiNativ target engagement assay in Jurkat cells)) EUB0001635a ZAP70; assay type: cell-based; conditions: at 1 µM
T3 sequence (whole entry): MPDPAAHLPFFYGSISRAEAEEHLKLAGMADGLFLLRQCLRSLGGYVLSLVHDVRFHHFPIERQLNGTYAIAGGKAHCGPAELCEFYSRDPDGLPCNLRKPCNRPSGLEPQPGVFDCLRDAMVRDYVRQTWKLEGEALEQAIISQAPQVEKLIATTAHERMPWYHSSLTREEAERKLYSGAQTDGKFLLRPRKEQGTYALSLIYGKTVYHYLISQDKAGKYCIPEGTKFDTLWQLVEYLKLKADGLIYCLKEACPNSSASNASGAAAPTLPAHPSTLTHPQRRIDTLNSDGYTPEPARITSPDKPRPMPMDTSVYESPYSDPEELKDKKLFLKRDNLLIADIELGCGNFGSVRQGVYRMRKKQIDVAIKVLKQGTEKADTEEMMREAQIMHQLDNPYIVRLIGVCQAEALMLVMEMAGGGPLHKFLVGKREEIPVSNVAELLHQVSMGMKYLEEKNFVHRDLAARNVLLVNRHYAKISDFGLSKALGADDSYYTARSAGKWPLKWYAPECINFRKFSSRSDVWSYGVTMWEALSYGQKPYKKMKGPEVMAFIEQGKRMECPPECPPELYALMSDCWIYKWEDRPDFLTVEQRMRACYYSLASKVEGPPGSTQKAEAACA

[12] = molecular target: Serine/threonine-protein kinase 16 (Homo sapiens, UniProt O75716); experiment: Selectivity interaction (KinomeScan (DiscoverX)) EUB0000618a STK16; conditions: at 10 µM
Sequence of Serine/threonine-protein kinase 16 (O75716 whole entry): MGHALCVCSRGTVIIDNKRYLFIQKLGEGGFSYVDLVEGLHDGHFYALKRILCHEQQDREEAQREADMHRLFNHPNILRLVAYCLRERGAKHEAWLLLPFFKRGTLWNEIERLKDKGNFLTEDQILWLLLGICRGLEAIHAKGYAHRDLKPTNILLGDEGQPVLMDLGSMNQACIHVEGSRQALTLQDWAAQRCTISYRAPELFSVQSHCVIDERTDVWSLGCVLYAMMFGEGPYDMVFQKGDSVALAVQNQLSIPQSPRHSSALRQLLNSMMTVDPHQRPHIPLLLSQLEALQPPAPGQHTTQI

[13] = molecular target: T2, Macrophage-stimulating protein receptor; experiment: Selectivity interaction (KinomeScan (DiscoverX)) EUB0000618a MST1R; conditions: at 10 µM

% of inhibition [1]: -16.5%
Compound: Cn1cc(-n2cnc3c(NCc4nc5cc(Cl)c(Cl)cc5[nH]4)nc(N4CCOCC4)nc32)cn1

dTM [2]: < 2 K
Compound: CN(C)CCCOc1ccc(-c2cc(NCCCn3cccn3)nc(S(C)(=O)=O)n2)cc1

Compound: O=C(NOC[C@H](O)CO)c1ccc(F)c(F)c1Nc1ccc(I)cc1F
% of control [3]: 78%

% of inhibition [4]: -5%
Compound: Cc1ccc(-c2ccc3c(ccc4sc5c(c43)NC[C@@H](C)NC5=O)n2)cn1

% of control [5]: 100% | % of control [6]: 100%
Compound: CCN(CC)CCCCNc1ncc2cc(-c3cc(OC)cc(OC)c3)c(NC(=O)NC(C)(C)C)nc2n1

Compound: COCC(=O)NC/C=C/c1ccc2ncnc(Nc3ccc(Oc4ccc(C)nc4)c(C)c3)c2c1 [CP-724714]
% of control [7]: 85%

Compound: COc1cc(Nc2nc(C)cc(-c3cnn4nc(OC)ccc34)n2)cc(C(F)(F)F)c1
% of control [8]: 100%

Compound: Nc1cnc(N2CCc3cc(S(=O)(=O)Nc4c(F)cc(Cl)cc4F)cc(N4CCCC4=O)c32)nc1 [TP-020n]
% of control [9]: 100% | % of control [10]: 100%

Compound: C=CC(=O)Nc1ccc(C(=O)Nc2[nH]nc3c2CN(C(=O)N[C@H](CN(C)C)c2ccccc2)C3(C)C)cc1
% of engagement ([11]; Selectivity number of off-targets 0.0, Selectivity number of targets 233.0, Source Knowledge https://www.sciencedirect.com/science/article/pii/S2451945619300674?via%3Dihub): -13.8% | % of engagement [11]: -8.5%

Compound: O[C@H]1CC[C@H](Nc2ncc3nc(Nc4c(F)cc(F)cc4F)n([C@H]4CCOC4)c3n2)CC1
% of control [12]: 60% | % of control [13]: 100%

— ChEMBL document CHEMBL5465560, “Selectivity Literature for EUbOPEN Chemogenomic Library” (2024)
